How the values were obtained:
pigweed = experiment: Test C pre-/postemergence test; type: in vivo, Amaranthus retroflexus; conditions: for Plant response rating, Pigweed: scale 0 to 100, 0 no effect, 100 complete control
Source text: (§1) Seeds of plant species selected from blackgrass (Alopecurus myosuroides), downy brome (Bromus tectorum), green foxtail (Setaria viridis), Italian ryegrass (Lolium multiflorum), wheat (Triticum aestivum), wild oat (Avena fatua), catchweed bedstraw (Galium aparine), Russian thistle (Salsola kali), […] (Cynodon dactylon), Surinam grass (Brachiaria decumbens), cocklebur (Xanthium strumarium), corn (Zea mays), crabgrass (Digitaria sanguinalis), woolly cupgrass (Eriochloa villosa), giant foxtail (Setaria faberii), Goosegrass (Eleusin indica), johnsongrass (Sorghum halepense), kochia (Kochia scoparia), lambsquarters (Chenopodium album), morningglory (Ipomoea coccinea), eastern black nightshade (Solanum ptycanthum), yellow nutsedge (Cyperus esculentus), pigweed (Amaranthus retroflexus), common ragweed (Ambrosia elation), soybean (Glycine max), common (oilseed) sunflower (Helianthus annuus), and velvetleaf (Abutilon theophrasti) were planted and treated preemergence with test chemicals formulated in a non-phytotoxic solvent mixture which included a surfactant. At the same time, plants selected from these crop and weed species and also winter barley (Hordeum vulgare), canarygrass (Phalaris minor), and chickweed (Stellaria media) were treated with postemergence applications of some of the test chemicals formulated in the same manner. Plants ranged in height from 2 to 18 cm (1- to 4-leaf stage) for postemergence treatments. […] At time of treatment, test pots were flooded to 3 cm above the soil surface, treated by application of test compounds directly to the paddy water, and then maintained at that water depth for the duration of the test. […] A dash (-) response means no test result.

green foxtail = experiment: Test C pre-/postemergence test; type: in vivo, Setaria viridis; conditions: for Plant response rating, Foxtail, Green: scale 0 to 100, 0 no effect, 100 complete control
Source text: as §1

barnyardgrass [1] = experiment: Test C flooded paddy test; type: in vivo, Echinochloa crus-galli; conditions: Flood
In short: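 Under a constant 3 cm flood, test compounds went directly into the paddy water. Following 13 to 15 days of greenhouse growth, treated species and controls were compared by eye.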

johnsongrass = experiment: Test C pre-/postemergence test; type: in vivo, Sorghum halepense; conditions: for Plant response rating, Johnsongrass: scale 0 to 100, 0 no effect, 100 complete control
Source text: as §1

crabgrass [2] = experiment: Test A pre-/postemergence greenhouse test; type: in vivo, Digitaria sanguinalis; conditions: for Crabgrass, Large plant response rating: 0 to 100 scale
In short: (§2)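 Visual injury ratings against untreated controls, taken roughly ten days after treatment in greenhouse. Plants were sprayed postemergence at one- to two-leaf stage (2–10 cm tall); at the same time, seeded loam/sand soil received a directed preemergence spray. Formulation: non-phytotoxic solvent mixture with surfactant.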

barnyardgrass [3] = experiment: Test A pre-/postemergence greenhouse test; type: in vivo, Echinochloa crus-galli; conditions: for Barnyardgrass plant response rating: 0 to 100 scale
In short: as §2

corn [4] = experiment: Test A pre-/postemergence greenhouse test; type: in vivo, Zea mays; conditions: for Corn plant response rating: 0 to 100 scale
In short: as §2

bermudagrass = experiment: Test C pre-/postemergence test; type: in vivo, Cynodon dactylon; conditions: for Plant response rating, Bermudagrass: Postemergence, scale 0 to 100, 0 no effect, 100 complete control
Source text: as §1

Goosegrass = experiment: Test C pre-/postemergence test; type: in vivo, Eleusin indica; conditions: for Plant response rating, Goosegrass: scale 0 to 100, 0 no effect, 100 complete control
Source text: as §1

crabgrass [5] = experiment: Test C pre-/postemergence test; type: in vivo, Digitaria sanguinalis; conditions: for Plant response rating, Crabgrass, Large: scale 0 to 100, 0 no effect, 100 complete control
Source text: as §1

yellow nutsedge = experiment: Test C pre-/postemergence test; type: in vivo, Cyperus esculentus; conditions: for Plant response rating, Nutsedge, Yellow: scale 0 to 100, 0 no effect, 100 complete control
Source text: as §1

corn [6] = experiment: Test C pre-/postemergence test; type: in vivo, Zea mays; conditions: for Plant response rating, Corn: scale 0 to 100, 0 no effect, 100 complete control
Source text: as §1

Italian ryegrass = experiment: Test C pre-/postemergence test; type: in vivo, Lolium multiflorum; conditions: for Plant response rating, Ryegrass, Italian: scale 0 to 100, 0 no effect, 100 complete control
Source text: as §1

velvetleaf = experiment: Test A pre-/postemergence greenhouse test; type: in vivo, Abutilon theophrasti; conditions: for Velvetleaf plant response rating: 0 to 100 scale
In short: as §2

soybean = experiment: Test C pre-/postemergence test; type: in vivo, Glycine max; conditions: for Soybean plant response rating: preemergence, scale 0 (no effect) to 100 (complete control); for Plant response rating, Soybean: scale 0 to 100, 0 no effect, 100 complete control
Source text: as §1

[7] = 31 g ai/ha, Preemergence, scale 0 to 100
[8] = 62 g ai/ha, preemergence, scale 0 (no effect) to 100 (complete control)
[9] = preemergence, 125 g ai/ha, scale 0 (no effect) to 100 (complete control)
[10] = Postemergence, 125 g ai/ha, 0 is no effect, 100 is complete control
[11] = Postemergence, 500 g ai/ha, 0 is no effect, 100 is complete control
[12] = Preemergence, 125 g ai/ha, 0 no effect, 100 complete control
[13] = Preemergence, 500 g ai/ha, 0 to 100 scale where 0 is no effect and 100 is complete control

Compound: Cc1cc[n+]([O-])c([S+]([O-])Cc2c(C(F)(F)F)nn(C)c2OC(F)F)c1 (stereo not shown) [Compound 1]
- Pigweed plant response rating (pigweed; [7]): 80
- Pigweed plant response rating (pigweed; [8]): 100
- Plant response rating (0 to 100), Pigweed (pigweed; Postemergence, 31 g ai/ha): 0
- Plant response rating (0 to 100), Pigweed (pigweed; Postemergence, 62 g ai/ha): 0
- Plant response rating, Pigweed (pigweed; Postemergence, 125 g ai/ha): 0
- Plant response rating, Pigweed (pigweed; Postemergence, 250 g ai/ha): 10
- Plant response rating (0 to 100), Pigweed (pigweed; Preemergence, 250 g ai/ha): 100
- Pigweed plant response rating (pigweed; [9]): 100
- Foxtail, Green plant response rating (green foxtail; [7]): 100
- Foxtail, Green plant response rating (green foxtail; [8]): 100
- Plant response rating (0 to 100), Foxtail, Green (green foxtail; Postemergence, 31 g ai/ha): 0
- Plant response rating, Foxtail, Green (green foxtail; Postemergence, 62 g ai/ha): 0
- Plant response rating, Foxtail, Green (green foxtail; Postemergence, 125 g ai/ha): 30
- Plant response rating, Foxtail, Green (green foxtail; Postemergence, 250 g ai/ha): 60
- Plant response rating (0 to 100), Foxtail, Green (green foxtail; Preemergence, 250 g ai/ha): 100
- Foxtail, Green plant response rating (green foxtail; [9]): 100
- Plant response rating, Barnyardgrass (barnyardgrass [1]; 31 g ai/ha, scale 0 to 100 (0 no effect, 100 complete control)): 0
- Plant response rating, Barnyardgrass (barnyardgrass [1]; 62 g ai/ha, scale 0 to 100, 0 no effect, 100 complete control, 13 to 15 days): 0
- Plant response rating, Barnyardgrass (barnyardgrass [1]; 125 g ai/ha, scale 0 to 100, 0 no effect, 100 complete control, 13 to 15 days): 80
- Plant response rating, Barnyardgrass (barnyardgrass [1]; 250 g ai/ha, scale 0 to 100 (0 no effect, 100 complete control)): 80
- Johnsongrass plant response rating (johnsongrass; [7]): 80
- Johnsongrass plant response rating (johnsongrass; [8]): 90
- Plant response rating (0 to 100), Johnsongrass (johnsongrass; Postemergence, 31 g ai/ha): 0
- Plant response rating, Johnsongrass (johnsongrass; Postemergence, 62 g ai/ha): 0
- Plant response rating, Johnsongrass (johnsongrass; Postemergence, 125 g ai/ha): 0
- Plant response rating, Johnsongrass (johnsongrass; Postemergence, 250 g ai/ha): 10
- Plant response rating (0 to 100), Johnsongrass (johnsongrass; Preemergence, 250 g ai/ha): 100
- Johnsongrass plant response rating (johnsongrass; [9]): 100
- Crabgrass, Large plant response rating (crabgrass [2]; [10]): 60
- Crabgrass, Large plant response rating (crabgrass [2]; [11]): 90
- Crabgrass, Large plant response rating (crabgrass [2]; [12]): 100
- Plant response rating, Crabgrass, Large (crabgrass [2]; [13]): 100
- Barnyardgrass plant response rating (barnyardgrass [3]; [10]): 80
- Barnyardgrass plant response rating (barnyardgrass [3]; [11]): 80
- Barnyardgrass plant response rating (barnyardgrass [3]; [12]): 90
- Plant response rating, Barnyardgrass (barnyardgrass [3]; [13]): 100
- Corn plant response rating (corn [4]; [10]): 50
- Corn plant response rating (corn [4]; [11]): 80
- Corn plant response rating (corn [4]; [12]): 0
- Plant response rating, Corn (corn [4]; [13]): 70
- Bermudagrass plant response rating (bermudagrass; [7]): 85
- Bermudagrass plant response rating (bermudagrass; [8]): 90
- Plant response rating, Bermudagrass (bermudagrass; 125 g ai/ha): 70
- Plant response rating, Bermudagrass (bermudagrass; 250 g ai/ha): 80
- Plant response rating (0 to 100), Bermudagrass (bermudagrass; Preemergence, 250 g ai/ha): 100
- Bermudagrass plant response rating (bermudagrass; [9]): 100
- Goosegrass plant response rating (Goosegrass; [7]): 70
- Goosegrass plant response rating (Goosegrass; [8]): 100
- Plant response rating (0 to 100), Goosegrass (Goosegrass; Postemergence, 31 g ai/ha): 0
- Plant response rating, Goosegrass (Goosegrass; Postemergence, 62 g ai/ha): 0
- Plant response rating, Goosegrass (Goosegrass; Postemergence, 125 g ai/ha): 30
- Plant response rating, Goosegrass (Goosegrass; Postemergence, 250 g ai/ha): 80
- Plant response rating (0 to 100), Goosegrass (Goosegrass; Preemergence, 250 g ai/ha): 100
- Goosegrass plant response rating (Goosegrass; [9]): 100
- Crabgrass, Large plant response rating (crabgrass [5]; [7]): 0
- Crabgrass, Large plant response rating (crabgrass [5]; [8]): 80
- Plant response rating (0 to 100), Crabgrass, Large (crabgrass [5]; Postemergence, 31 g ai/ha): 10
- Plant response rating, Crabgrass, Large (crabgrass [5]; Postemergence, 62 g ai/ha): 30
- Plant response rating, Crabgrass, Large (crabgrass [5]; Postemergence, 125 g ai/ha): 50
- Plant response rating, Crabgrass, Large (crabgrass [5]; Postemergence, 250 g ai/ha): 70
- Plant response rating (0 to 100), Crabgrass, Large (crabgrass [5]; Preemergence, 250 g ai/ha): 100
- Crabgrass, Large plant response rating (crabgrass [5]; [9]): 100
- Nutsedge, Yellow plant response rating (yellow nutsedge; [7]): 0
- Nutsedge, Yellow plant response rating (yellow nutsedge; [8]): 95
- Plant response rating (0 to 100), Nutsedge, Yellow (yellow nutsedge; Postemergence, 31 g ai/ha): 0
- Plant response rating, Nutsedge, Yellow (yellow nutsedge; Postemergence, 62 g ai/ha): 0
- Plant response rating, Nutsedge, Yellow (yellow nutsedge; Postemergence, 125 g ai/ha): 0
- Plant response rating, Nutsedge, Yellow (yellow nutsedge; Postemergence, 250 g ai/ha): 0
- Plant response rating (0 to 100), Nutsedge, Yellow (yellow nutsedge; Preemergence, 250 g ai/ha): 100
- Nutsedge, Yellow plant response rating (yellow nutsedge; [9]): 100
- Corn plant response rating (corn [6]; [7]): 50
- Corn plant response rating (corn [6]; [8]): 60
- Plant response rating (0 to 100), Corn (corn [6]; Postemergence, 31 g ai/ha): 0
- Plant response rating, Corn (corn [6]; Postemergence, 62 g ai/ha): 0
- Plant response rating, Corn (corn [6]; Postemergence, 125 g ai/ha): 0
- Plant response rating, Corn (corn [6]; Postemergence, 250 g ai/ha): 5
- Plant response rating (0 to 100), Corn (corn [6]; Preemergence, 250 g ai/ha): 98
- Corn plant response rating (corn [6]; [9]): 95
- Ryegrass, Italian plant response rating (Italian ryegrass; [7]): 60
- Ryegrass, Italian plant response rating (Italian ryegrass; [8]): 100
- Plant response rating (0 to 100), Ryegrass, Italian (Italian ryegrass; Postemergence, 31 g ai/ha): 0
- Plant response rating (0 to 100), Ryegrass, Italian (Italian ryegrass; Postemergence, 62 g ai/ha): 0
- Plant response rating, Ryegrass, Italian (Italian ryegrass; Postemergence, 125 g ai/ha): 0
- Plant response rating, Ryegrass, Italian (Italian ryegrass; Postemergence, 250 g ai/ha): 30
- Plant response rating (0 to 100), Ryegrass, Italian (Italian ryegrass; Preemergence, 250 g ai/ha): 100
- Ryegrass, Italian plant response rating (Italian ryegrass; [9]): 100
- Velvetleaf plant response rating (velvetleaf; [10]): 50
- Velvetleaf plant response rating (velvetleaf; [11]): 70
- Velvetleaf plant response rating (velvetleaf; [12]): 30
- Plant response rating, Velvetleaf (velvetleaf; [13]): 100
- Soybean plant response rating (soybean; 62 g ai/ha): 100
- Plant response rating (0 to 100), Soybean (soybean; Postemergence, 31 g ai/ha): 60
- Plant response rating (0 to 100), Soybean (soybean; Postemergence, 62 g ai/ha): 85
- Plant response rating, Soybean (soybean; Postemergence, 125 g ai/ha): 85
- Plant response rating, Soybean (soybean; Postemergence, 250 g ai/ha): 90
- Plant response rating (0 to 100), Soybean (soybean; Preemergence, 250 g ai/ha): 100
- Soybean plant response rating (soybean; 125 g ai/ha): 100

— patent publication US20100298141A1, “SUBSTITUTED PYRIDINE N-OXIDE HERBICIDES” (E. I. DU PONT DE NEMOURS AND COMPANY, priority 2007, published 2010)
